Assays:
atria = assay: Atrial electrophysiology (right atrial ERP) and atrial fibrillation induction after pericardial or intravenous procainamide; assay type: in vivo; settings: swine
Protocol: (§1) Studies were conducted to determine the differences between intrapericardial (IPC) drug delivery versus intravenous (IV) drug delivery of the antiarrhythmic drug procainamide. In one study, using two groups of swine, investigators administered procainamide intravenously (n=6) or […] (n=7) using sequential intravenous doses of 2, 8, 16 mg/kg (cumulative was 2, 10, 26 mg/kg) or sequential pericardial doses of 0.5, 1, and 2 mg/kg (cumulative was 0.5, 1.5, 3.5 mg/kg). Each dose was re-suspended in 10 ml and administered at a rate of 1 mL/min. The pharmacokinetics of the two drug delivery methods was statistically significant. Pericardial delivery produced peak drug concentrations within the range of 250 to 900 ug/ml while the measurable level for plasma concentration was low (<1 ug/mL). […] It should be noted that the pericardial fluid concentration during intravenous delivery was 100 times less than that of intrapericardial delivery. The atrial electrophysiologic values were similar between both sets of delivery methods, indicating a lower direct dose can achieve similar therapeutic responses. The 3.5 mg/kg cumulative pericardial dose increased right atrial ERP by 22% from the baseline, while the 10 and 26 mg/kg cumulative intravenous doses prolonged atrial ERP by 24% and 18%, respectively. In addition, the cumulative doses of 3.5 mg/kg (pericardial) and 26 mg/kg (intravenous) prevented atrial fibrillation induction in 71% and 83% of the animals, respectively.

[1] = tested on: ventricular electrophysiology; assay: Ventricular electrophysiology, heart rate and systemic blood pressure after pericardial or intravenous procainamide; assay type: in vivo; settings: swine
Protocol: as §1

[2] = parameters: species or system swine; settings: in vivo
Protocol: as §1, with “In addition, the cumulative doses of 3.5 mg/kg (pericardial) and 26 mg/kg (intravenous) prevented atrial fibrillation induction in 71% and 83% of the animals, respectively.” left out

pericardial fluid concentration during intravenous delivery relative to intrapericardial delivery ([2]; swine): 100 times less
Structure (SMILES): CCN(CC)CCNC(=O)c1ccc(N)cc1 [procainamide]
animals in which atrial fibrillation induction was prevented (atria; 3.5 mg/kg cumulative dose, pericardial): 71%
increase of right atrial ERP from the baseline (atria; 3.5 mg/kg cumulative pericardial dose): 22%
prolongation of atrial ERP (atria; 10 mg/kg cumulative intravenous dose): 24%
animals in which atrial fibrillation induction was prevented (atria; 26 mg/kg cumulative dose, intravenous): 83%
prolongation of atrial ERP (atria; 26 mg/kg cumulative intravenous dose): 18%
atrial ventricular conduction times ([1]; 26 mg/kg intravenous dose): prolonged
interventricular conduction (RV and LV activation) ([1]; 26 mg/kg intravenous dose): reduced
effects on ventricular electrophysiology, heart rate, or systemic blood pressure ([1]; pericardial delivery): no significant effects
concentrations within the pericardial fluid ([2]; iv): equal to that of the plasma concentration

Source: patent US10456553B2, “Device and methods for targeted tissue drug delivery” (NATIVE CARDIO, INC., priority 2012, dated 2019)
